Source: PMC9108603, “Microbial Metabolite Inspired β‐Peptide Polymers Displaying Potent and Selective Antifungal Activity” (Advanced Science, 2022)

Legend:
Format in all cases: cell-based, Candida albicans
C. albicans (K1 strain) [1] = assay: DNA fragmentation assay (TUNEL); details: 50 μg/mL PDAP20, 8 h, 3.0 × 10^6 CFU/mL; late stage of apoptosis
Procedure: NAC concentration without affecting the normal cell growth. Wells containing cells in RPMI and 40 mM H 2O2 was used as positive controls. Cell suspension of C. albicans (K1 strain) at 6.0 × 10^6 CFU/mL was treated with 20 μM 2,7-dichlorodi-hydrofluorescein diacetate (DCFHDA) for 20 min. Then 50 µL of the cell suspension was added to each well, except the blank control (RMPI containing DCFHDA without cells). The fluorescence intensity of the induced ROS production was measured every 30 min using a plate reader at λ ex = 485 nm and λem = 530 nm. […]
Detection of mitochondrial membrane potential. Changes in mitochondrial membrane potential in C. albicans after incubation with PDAP 20 were analyzed using JC-1 as previously described. Mitochondrial membrane potential was detected with the fluorescent dye JC-1, which exists as aggregates (red) in normal cells with polarized mitochondria, whereas exists as monomers (green) in apoptotic cells with depolarized mitochondria. […]
(§1) DNA fragmentation assay. Apoptosis induced DNA fragments in C. albicans cells were analyzed using the TdT-mediated dUTP Nick-End Labeling (TUNEL) method. […]
fresh non-treated cell suspension was used as a control. The bright field and FITC fluorescence were collected under 100× oil immersion lenses, with representative areas in the images electronically amplified sixfold. […]

C. albicans (R02 strain) = assay: microbe, parasite or virus in culture; details: C. albicans R02; 0.5 × MIC of PDAP20 or 0.5 × MIC50 of fluconazole; 30 passages; duplicates
Procedure: Drug resistance studies. Drug resistance was induced by treating the C. albicans (R02 strain) repeatedly with antifungal agents. […]
albicans were tested for 30 passages of growth, which is long enough and adopted by many studies. C. albicans exposed to the 1/2 MIC concentration at the particular passage were re-grown to a logarithmic growth phrase and re-used for the subsequent passage’s MIC measurement for the same antifungal agent. Drug-resistant behavior of C. albicans was evaluated by recording the changes in the MIC compared to the original passage. All measurements were performed in duplicates. […]

C. albicans (K1 strain) [2] = assay: Intracellular ROS detection (DCFH fluorescence); details: DCF fluorescence, positive control 40 mM H2O2; rises with time and PDAP20 concentration
Procedure: Energy depletion analysis. For energy depletion experiments, cell suspension of C. albicans (K1 strain) at 3.0 × 10^6 CFU/mL was pretreated with RPMI containing 5 mM NaN 3 for 1 h. For antifungal efficiency assay, a fresh cell suspension pretreated or non-pretreated with NaN 3 were incubated with 50 μg/mL PDAP 20 or without an antifungal agent (as energy depletion control) for 24 h. The fresh cell suspension without antifungal agents before and after incubation with NaN 3 for 24 h were used as the controls, respectively. The suspensions were diluted and plated on YPD agar. The plates were incubated at 30 °C for 24 h and colony amounts were counted. The cell viability after incubation at 4 °C with 50 μg/mL PDAP 20 or without an antifungal agent (as positive control) was measured using the same method. […]
(§2) For flow cytometry experiment, a fresh cell suspension pretreated or non-pretreated with NaN 3 was incubated with 50 μg/mL CPM-PDAP 20 for 1 h and 2 h, respectively. Fungal cells were washed by PBS to remove polymers, and 5.0 × 10^4 cells were counted and anaysized. The polymer uptake was calculated by flow cytometry (Backman). Furthermore, cell suspensions were incubated with 10 μg/mL PI for 10 min for calculated PI uptake. […]
as §1

C. albicans (K1 strain) [3] = assay: Killing efficiency under energy depletion; details: 2 × MFC (50 μg/mL), colony count, n = 3
Procedure: Energy depletion analysis. For energy depletion experiments, cell suspension of C. albicans (K1 strain) at 3.0 × 10^6 CFU/mL was pretreated with RPMI containing 5 mM NaN 3 for 1 h. For antifungal efficiency assay, a fresh cell suspension pretreated or non-pretreated with NaN 3 were incubated with 50 μg/mL PDAP 20 or without an antifungal agent (as energy depletion control) for 24 h. The fresh cell suspension without antifungal agents before and after incubation with NaN 3 for 24 h were used as the controls, respectively. The suspensions were diluted and plated on YPD agar. The plates were incubated at 30 °C for 24 h and colony amounts were counted. The cell viability after incubation at 4 °C with 50 μg/mL PDAP 20 or without an antifungal agent (as positive control) was measured using the same method.
For the confocal assay, a fresh cell suspension pretreated or non-pretreated with NaN 3 was incubated with 50 μg/mL CPM-PDAP 20 for 24 h, respectively. […]
as §2

Substance: poly(DL‐diaminopropionic acid) [PDAP20]
- DNA fragmentation, TUNEL (C. albicans (K1 strain) [1]): strong green cytosol fluorescence
- Development of drug resistance on continuous treatment (C. albicans (R02 strain)): didn't acquire resistance
- Intracellular ROS level (C. albicans (K1 strain) [2]): higher than that of the hydrogen peroxide‐treated fungal cells
- Fungal cells killed under energy depletion, NaN3 (C. albicans (K1 strain) [3]; 5 × 10^−3 M NaN3, 3.0 × 10^6 CFU/mL, 24 h): about 88%
- Fungal cells killed under energy depletion, 4°C (C. albicans (K1 strain) [3]; at 4°C): about 88%
